Type in all cases: biochemical
Assay [1] deals with T1, protein tyrosine phosphatase nonreceptor type 22 (PTPN22) (Homo sapiens, UniProt Q9Y2R2).
T1 construct: catalytic domain, amino acids 1 to 303
T1 sequence (Q9Y2R2 1-303): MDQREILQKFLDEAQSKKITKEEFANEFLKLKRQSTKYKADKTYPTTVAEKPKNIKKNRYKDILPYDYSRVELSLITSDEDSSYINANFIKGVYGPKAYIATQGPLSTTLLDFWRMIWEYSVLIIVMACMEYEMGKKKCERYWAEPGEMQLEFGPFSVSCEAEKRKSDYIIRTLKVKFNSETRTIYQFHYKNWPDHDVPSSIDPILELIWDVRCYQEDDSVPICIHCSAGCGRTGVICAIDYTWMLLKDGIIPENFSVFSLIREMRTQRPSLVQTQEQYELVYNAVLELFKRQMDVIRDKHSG
Briefly: pNPP phosphatase assay with recombinant enzyme, reference inhibitor.

The target in assay [2] is T1, protein tyrosine phosphatase nonreceptor type 22 (PTPN22). Briefly: pNPP phosphatase assay, single concentration screen at […]. The conditions noted are these: read-out: % inhibition at 50 μM.
The target is the same in assay [3]. Briefly: pNPP phosphatase assay with recombinant enzyme; Lineweaver-Burk and Dixon plots (Ki […]).

The structures appear in SMILES notation.

As to `C[C@H]1[C@H](C)CC[C@]2(C(=O)O)CC[C@]3(C)C(=CC[C@@H]4[C@@]5(C)CC[C@H](O)C(C)(C)[C@@H]5CC[C@]43C)[C@H]12` [ursolic acid], the IC50 in assay [1] was determined as 37.2 µM.

Turning to `CO[C@H]1C[C@H](O[C@@H]2/C(C)=C/C[C@@H]3C[C@@H](C[C@]4(CC[C@H](C)[C@@H](C5CCCCC5)O4)O3)OC(=O)[C@@H]3C=C(C)/C(=N/O)[C@H]4OC/C(=C\C=C\[C@@H]2C)[C@]43O)O[C@@H](C)[C@@H]1O` [selamectin], the inhibition at 50 µM in assay [2] was 54%.

As to `O=c1c(O)c(-c2ccc(O)c(O)c2)oc2cc(O)cc(O)c12` [quercetin], in assay [3], the IC50 was found to be 29.6 µM. With `CO[C@H]1C[C@H](O[C@H]2[C@H](C)O[C@@H](O[C@@H]3/C(C)=C/C[C@@H]4C[C@@H](C[C@]5(C=C[C@H](C)[C@@H](C6CCCCC6)O5)O4)OC(=O)[C@@H]4C=C(C)[C@@H](O)[C@H]5OC/C(=C\C=C\[C@@H]3C)[C@]54O)C[C@@H]2OC)O[C@@H](C)[C@@H]1O` [doramectin], the inhibition at 50 µM in assay [2] came out at 50%. Turning to `O=C1C=CC(=O)c2c(O)cccc21` [5HNQ], the inhibition at 50 µM in assay [2] came out at 61%. Take `O=C1C=C(O)C(=O)c2ccccc21` [2HNQ]: the inhibition at 50 µM in assay [2] was found to be 62%.

A word on the IC50: it is the concentration that gives 50% inhibition. Usually inhibition stands for the change of the read-out against control, counted positive when it falls.

These data come from publication PMC11506171, “Quercetin as a Modulator of PTPN22 Phosphomonoesterase Activity: A Biochemical and Computational Evaluation” (Current Issues in Molecular Biology, 2024).
